Test results from patent US20190167711A1, “METHODS FOR DIAGNOSIS AND TREATMENT OF ACUTE LYMPHOBLASTIC LEUKEMIA” (MOR RESEARCH APPLICATIONS LTD., priority 2014, published 2019).

Key:
Nalm-6 cells [1] = assay: Annexin V-FITC apoptosis assay in Nalm-6 cells; assay type: cell-based; conditions: 1 nM for 48 hours, Nalm-6 cells, FACS
Text: Cells were stained with annexin V-fluorescein-5-isothiocyanate (FITC) conjugated antibody and propidium iodide (PI) using the Annexin V-FITC Apoptosis Detection Kit (ab14085, Abcam® Incorporated, Cambridge, Mass., USA) according to manufacturer's instructions (see, for example, https://www.abcam.com/ps/products/14/ab14085/documents/ab14085%20Annexin %20V%20FITC%20Apoptosis%20Detection%20Kit%20v4%20(website).pdf), and read on the flow cytometer. Annexin V Apoptosis Detection Kit is based on the observation that soon after initiating apoptosis, cells translocate the membrane phosphatidylserine (PS) from the inner face of the plasma membrane to the cell surface. Once on the cell surface, PS can be easily detected by staining with a fluorescent conjugate (e.g., FITC) of Annexin V, a protein that has a high affinity for PS. The one-step staining procedure takes only 10 minutes. When performing both Annexin V-FITC and PI staining, it is possible to differentiate apoptosis vs necrosis.
(§1) To measure the effect of NAD^+ depletion following FK866 treatment of Nalm-6 cells, apoptosis and viability were measured as described in Materials and Methods. Nalm-6 cells were treated for 48 hours with 1 nM FK866, and then apoptosis was measured using FACS.

Nalm-6 cells [2] = assay: XTT cell viability assay in Nalm-6 cells; assay type: cell-based; conditions: 1 nM for 48 hours, Nalm-6 cells, XTT
Protocol: Cell viability assay was performed using the Cell Proliferation Kit comprising the second-generation tetrazolium dye, XTT. Viable cells with active metabolism convert XTT into an orange colored reduction product, whereas dead cells lose the ability to reduce XTT, thus, color formation serves as a useful and convenient marker of only the viable cells.
The XTT kit was applied to NALM6 transfected cells according to the manufacturer's protocol (Biological Industries, Kibbutz Beit Haemek, Israel). Cells were incubated for 3 hours with the XTT reagent and quantity of reduced XTT (directly proportional to the number of viable cells) was assessed by recording changes in absorbance as measured on a microplate reader at 450-500 nm optical density (OD).
as §1

NALM-6/miR-451 mimic = assay: FK866 in xenograft of NALM-6/miR-451 mimic stable line; assay type: in vivo, NSG™ mice
Protocol: (§2) miR-451 precursor and antagomiR-451 expression clones were obtained from GeneCopoeia™ (GeneCopoeia, Rockville, Md., USA). Stable cell lines were prepared by the Tel Aviv University's Vector Core Facility by transduction of ALL cell line (NALM-6) with lentiviral particles co-encoding miR-451 precursor or antagomiR-451, the ORF for EGFP/mCherry and puromycin-resistance, under the control of individual CMV promoters. The ORFs and the miR-451 precursor/antagomiR-451 oligonucleotide sequences were incorporated into the pLL3.7 3rd generation lentiviral vector. […]
(§3) Ten million ALL NALM-6 cells in 100 μl saline were injected subcutaneously, above the femur, to 6-8 weeks-old NSG™ mice (NSG™ mouse model variants are the most highly immunodeficient mice and therefore were chosen as models for cancer xenograft modelling). […] The volume of tumors was measured daily until mice were sacrificed. Tumor volume was monitored using vernier caliper measurements and calculated using the formula π(length)(width)^2/6. […]
(§4) In order to assess a possible association or correlation between miR-451 expression levels and sensitivity to in-vivo treatment of ALL with a NAMPT inhibitor, the effect of the NAMPT inhibitor FK866 was assessed in the presence of elevated levels or lowered levels of miR-451 in ALL xenograft mouse model. […] Tumors volume was measured daily.

ALL NALM-6 cells = assay: FK866 in ALL xenograft mouse model; assay type: in vivo, NSG™ mice
Protocol: Ten million ALL NALM-6 cells in 100 μl saline were injected subcutaneously, above the femur, to 6-8 weeks-old NSG™ mice (NSG™ mouse model variants are the most highly immunodeficient mice and therefore were chosen as models for cancer xenograft modelling). Tumors were clinically evident 15-28 days following injection in more than 85% of the mice (n=175). Mice were divided into groups receiving either FK866 or vehicle treatment. Mice in the treatment group received FK866 in 0.9% saline intraperitoneally at a dose of 15 mg/Kg daily for 5 days. Vehicle in the control group was injected intraperitoneally once a day for 5 days repeated weekly. The volume of tumors was measured daily until mice were sacrificed. Tumor volume was monitored using vernier caliper measurements and calculated using the formula π(length)(width)^2/6. Each experiment was ended when tumor size reached 12×12 mm^3. All animal experiments were performed under an approved animal study protocol.
Following the in vitro studies described in Example 4 herein, the sensitivity of ALL tumor growth to a NAMPT inhibitor was tested in-vivo in an ALL xenograft mouse model. The NAMPT inhibitor tested was the known small molecule FK866. The effect of FK866 was tested in the ALL xenograft mouse model in 4 independent experiments each performed on a group of 82 NSG™ mice as follows: 41 mice were treated with FK866 (15 mg/kg) once a day for 5 days repeated weekly, and 41 mice served as controls (i.e., were not treated with FK866 and received saline instead).
Mice were treated from the day tumors were clinically evident in all mice (day 25), and tumors volume was measured daily.

[3] = system: NAD^+ formation in Nalm-6 cell line; assay: NAD^+/NADH assay in Nalm-6 cells treated with FK866; assay type: cell-based
Protocol: (§5) The NAD^+/NADH ratio was measured in whole-cell extracts of NALM-6 cells using the Biovision NAD^+/NADH Quantification Colorimetric™ Kit (BioVision, San Francisco, Calif., USA) (also referred to herein as “NAD assay”) according to the manufacturer's protocol (see, for example, https://www.biovision.com/documentation/datasheets/K337.pdf). The NAD Cycling Enzyme Mix in the kit specifically recognizes NADH/NAD^+ in an enzyme cycling reaction. After 4 hrs, the plate was read at optical density (OD) 450 nm. The readings were normalized to the cell number and the NAD^+/NADH ratio was calculated as: (total NAD^+−NADH)/NADH.
Nalm-6 cells were treated for 1, 3, and 6 hours with 1 nM FK866 (Sigma) and NAD^+ formation was measured using NAD assay as described in Materials and Methods.
The sensitivity of NALM-6 cells to the NAMPT inhibitor FK866 was measured in cells following transfection with miR-451 mimic (SEQ ID NO: 2), miR-451 inhibitor (miArrest™ miR-451 expression clone; GeneCopoeia™), or scrambled miR. Sensitivity was assessed by measuring the levels of NAD^+. […] Thus, miR-451 expression can distinguish between patients that could benefit from treatment with NAMPT inhibitors such as FK866.

[4] = Phase I, patients with advanced cancers; cited from earlier work
NALM-6/antagomiR-451 = assay: FK866 in xenograft of NALM-6/antagomiR-451 stable line; assay type: in vivo, NSG™ mice
Protocol: as §2, §3, §4

NAMPT = NAMPT expression after TPA treatment; assay type: cell-based; conditions: 50 ng/ml for 24 hours, human peripheral blood cells, FACS
Protocol: Studies by several investigators have shown that 12-0-tetradecanoylphorbol-13-acetate (TPA) (Sigma) is an extraordinarily potent tumor promoter and stimulates protein kinase C (PKC). Since NAMPT is over-expressed in several tumors, it was believed that it might be possible to achieve NAMPT stimulation by TPA treatment. To test this hypothesis, human peripheral blood cells were treated with 50 ng/ml TPA for 24 hours, and NAMPT expression was measured by FACS using a specific NAMPT antibody.

NAD^+ levels = assay: NAD assay in TPA stimulated cells; assay type: cell-based, human
Protocol: as §5
NAMPT is the rate-limiting enzyme in the NAD^+ biosynthetic pathway. Thus, NAD^+ levels in the stimulated cells were measured using a standard NAD assay (BioVision NADH/NAD^+ Quantification Colorimetric™ Kit).

phospho-STAT protein = assay: Phospho-STAT levels by FACS after miR-1290 mimic transfection; assay type: cell-based; conditions: NALM-6 cell line transfected
Protocol: Phosphorylated STAT (phospho-STAT, activated by JAK) levels were measured by FACS analysis following transfection of miR-1290 mimic (overexpression) into NALM-6 cell line. An increase of 50% in the levels of phospho-STAT protein was evident in the cells expressing high levels of miR-1290 (FIG. 11).

O=C(/C=C/c1cccnc1)NCCCCC1CCN(C(=O)c2ccccc2)CC1 [FK866]
apoptosis level (Nalm-6 cells [1]): significantly increased apoptosis level
cell viability (Nalm-6 cells [2]): significant decrease in cell viability
tumor growth/volume change treated vs untreated (NALM-6/miR-451 mimic; NALM-6/miR-451 mimic mice): Only a moderate difference in tumor growth/volume change
mean tumor volume at the end of experiments (NALM-6/miR-451 mimic; miR-451 mimic group, FK866 15 mg/kg): 544±64 mm^3
mean tumor volume at the end of experiment (ALL NALM-6 cells; 15 mg/kg daily, day 32): 300.36±63.67 mm^3
tumor growth increase (ALL NALM-6 cells; 15 mg/kg daily, day 32 vs day 25): less than 150%
volume change treated vs non-treated group (ALL NALM-6 cells; within 4 days of treatment (day 29)): tumor growth inhibition
NAD^+ detection following treatment ([3]; 1 nM for 1, 3 and 6 hours, Nalm-6 cells): gradual decrease in NAD^+ detection
change in NAD^+ production after FK866 treatment compared to control ([3]; Nalm-6/miR-451 inhibitor cells): more than 5 fold
change in NAD^+ production after FK866 treatment compared to control ([3]; Nalm-6/miR-451 mimic cells): less change in NAD^+ production
tolerability and safety [4]: well tolerated and safe
tumor growth/volume change treated vs un-treated (NALM-6/antagomiR-451; NALM-6/antagomiR-451 mice): significant difference in tumor growth/volume change
mean tumor volume at the end of experiments (NALM-6/antagomiR-451; antagomiR-451 group, FK866 15 mg/kg): 117±81 mm^3

CCCCCCCCCCCCCC(=O)O[C@@H]1[C@@H](C)[C@@]2(O)[C@@H](C=C(CO)C[C@]3(O)C(=O)C(C)=C[C@@H]23)[C@@H]2C(C)(C)[C@]12OC(C)=O [TPA, 12-O-tetradecanoylphorbol-13-acetate]
increase in NAMPT expression levels (NAMPT): more than 4 folds
cellular NAD^+ levels, fold higher (NAD^+ levels): 2 fold

miR-1290 mimic: synthetic miR-1290 mimic, SEQ ID NO:4, for over-expression of miR-1290 (UGGAUUUUUGGAUCACCUGAUCCAAAAAU; listed as RNA, chemistry not given here)
increase in the levels of phospho-STAT protein (phospho-STAT protein): 50%
